Test results as given in patent publication US10111854B2, “Synthesis and use of amine-containing flavonoids as potent anti-leishmanial agents” (The Hong Kong Polytechnic University, priority 2014, dated 2018).
Values after ≈ are worked out from the molar mass of the structure shown. Like-named read-outs stand apart in the source and are kept apart here.

Legend:
[1] = system: L. amazonensis LV78 promastigotes; experiment: Anti-promastigote activity (MTS assay), L. amazonensis LV78; type: cell-based; details: Leishmania amazonensis, 72 hours
Method in brief: (§1)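 Promastigotes (1×10^5 per well) in Schneider's medium pH 6.9 with 10% FBS, exposed to serial compound concentrations for 72 h at 27 °C. Viability by MTS/PMS reduction over 4 h, OD 490 nm; IC50 derived.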

[2] = system: L. major FV1 promastigotes; experiment: Anti-promastigote activity (MTS assay), L. major FV1; type: cell-based; details: Leishmania major, 72 hours
Method in brief: as §1

[3] = system: L. donovani HU3 promastigotes; experiment: Anti-promastigote activity (MTS assay), L. donovani HU3; type: cell-based; details: Leishmania donovani, 72 hours
Method in brief: as §1

[4] = system: L. amazonensis promastigotes; experiment: Mitochondrial membrane potential (rhodamine 123) and survivors (MTS) of promastigotes; type: cell-based; details: for viability at 10 µM: Leishmania amazonensis, read-out: % of viable cells (MTS)
Description: 1×10^7 promastigotes were seeded into each well of 6-well plate. The promastigotes were incubated with different concentrations (0, 1.25, 2.5, 5 and 10 μM) of FM09 for 24 and 48 hr, respectively. After incubation, promastigotes were washed two times with 1×PBS and resuspended with 1000 μL of supplemented Schneider's Insect media containing 10 μg/mL of rhodamine 123 in an Eppendorf. The promastigotes were incubated with rhodamine 123 at room temperature for 40 min with shaking. After incubation, promastigotes were washed one time with cold 1×PBS and then re-suspended with 100 μL of 1×PBS. The fluorescent level of rhodamine 123 was measured with a microplate reader (excitation: 485 nm and emission: 520 nm).
L. amazonensis promastigotes were cultivated in different concentration (0, 1.25, 2.5, 5 and 10 μM) of FM09 for 24 hr or 48 hr. The promastigotes were washed and exposed to rhodamine 123 (10 μg/mL) for 40 min. The level of rhodamine 123 accumulation was measured at 520 nm using 485 nm as an excitation wavelength. 0.2% DMSO was used as a solvent control. The values were presented as mean±standard error of mean.

[5] = Pharmacokinetics study of FM09, FM09h and FM05b, iv and oral; type: in vivo, Balb/c mice; details: 50 mg/kg oral
Description: Animals were sacrificed at the indicated time point and plasma level of the corresponding flavonoids were determined using LC-MSMS. IC50 of corresponding flavonoids are indicated. Bioavailability (F) was calculated by dividing the dose-adjusted area under curve (AUC) of that of orally-fed over intravenously administered animals.

[6] = system: promastigotes (L. amazonensis LV78, L major FV1, L. donovani HU3, L. donovani 39); experiment: Anti-promastigote activity, strain not given; type: cell-based; details: Leishmania amazonensis; strain not specified; read-out: IC50 against promastigotes
Description: Anti-promastigote activity was determined according to previous procedures (1) by Cell Titer 96® Aqueous Assay (Promega) that employed a tetrazolium compound. Promastigotes were seeded into 96-well flat bottom microtiter plate at 1×10^5 cells per well in a final volume of 100 μL medium and incubated with a series of concentrations of synthetic FM. Parasites were incubated at 27° C. for 72 hours. After 72 hours of incubation, 10 μL of MTS:PMS mixture [MTS:2-(4,5-Dimethylthiazol-2-yl-)-5-[3-(carboxymethoxy)phenyl]-2-(4-sulfophenyl)-2H-tetrazolium); PMS: phenazine methosulfate both purchased from Sigma] was added into each well of microtiter plate. The plate was then incubated at 27° C. for 4 hours for color development. After 4 hours of incubation, the OD values were determined at 490 nm using automatic microtiter plate reader (Bio-Rad).
IC50 values of known antileishmanials and the amine-containing flavonoid monomers of the present invention to promastigotes (L. amazonensis LV78, L major FV1, L. donovani HU3, L. donovani 39), macrophages (Raw 264.7 and PEM) and mouse fibroblast (L929) were determined. The anti-promastigotes activities and cytotoxicity of the amine-containing flavonoid monomers of the invention are shown in Table 1.

[7] = system: peritoneal elicited macrophages (PEM); experiment: Cytotoxicity, peritoneal elicited macrophages (PEM); type: cell-based, mouse; details: mouse
[8] = Bioavailability study of flavonoid dimer 39, oral feeding vs i.v.; type: in vivo, Balb/c mice; details: in 50% PEG, 30 minutes
Description: Amine-linked flavonoid dimers are disclosed in prior studies to be sparingly soluble in aqueous medium. Their poor oral bioavailability is confirmed by in vivo study in mice. […] Plasma concentration of 39 was determined 30 minutes after oral feeding or i.v. administration. […] Such low bioavailability precluded 39 from being used as an oral antileishmanial agent in the future.

[9] = Water solubility; type: physicochemical
Source text: In terms of physicochemical properties, all flavonoid monomers listed as active against either L. amazonensis (Table 3A) or L. donovani (Table 3B) are smaller than 39, and have fewer H-bond donors and acceptors. They also have a lower calculated ACDLogP (1.978 to 4.537) than 39 (5.104), except FM05 (5.011), FM17 (5.101) and FM19 (5.451). The lower ACDLogP values mean more water soluble; better partition between hydrophilic and hydrophobic phases and potentially easier to be absorbed orally. Indeed, these flavonoid monomers are highly water soluble (up to about 40 mg/mL of the hydrochloride salt) whereas 39 is not (up to about 4 mg/ml).

[10] = system: L. amazonensis; details: cutaneous leishmaniasis murine model; cited from earlier work

Structure (SMILES) | IC50 [1] | IC50 [2] | IC50 [3] | Mitochondrial potential (rhodamine 123 accumulation) ([4]; 0-10 μM, 24 hr and 48 hr, dose-dependent) | % of survivors (MTS) ([4]; 1.25 μM, 24 hr and 48 hr) | % of survivors (MTS) ([4]; 2.5 μM, 24 hr and 48 hr) | % of survivors (MTS) ([4]; 5 μM, 24 hr) | % of survivors (MTS) ([4]; 5 μM, 48 hr) | viability at 10 µM ([4]; 24 hr) | viability at 10 µM ([4]; 48 hr) | Clearance from plasma after oral feeding [5] | bioavailability ([5]; Balb/c, mouse, plasma, 10 mg/kg iv, dose-adjusted AUC oral over iv, read-out: Bioavailability (F)) | IC50 [6] | IC50 [7] | Plasma level after oral feeding relative to i.v. group [8] | solubility [9] | Foot pad lesion size [10]
O=c1cc(-c2ccc(OCCOCCN(Cc3ccccn3)Cc3ccccn3)cc2)oc2ccccc12 [FM09, 2-(4-(2-(2-(bis(pyridin-2-ylmethyl)amino)ethoxy)ethoxy)phenyl)-4H-chromen-4-one] | 1000 ± 300 nM | 800 ± 100 nM | 500 ± 200 nM | drop of mitochondrial potential | about 100% | about 100% | 68% | 88% | 29% | 23% | rapidly cleared | 14% | < 5000 nM |  |  |  | 
O=c1cc(-c2ccc(OCCOCCN(CCOCCOc3ccc(-c4cc(=O)c5ccccc5o4)cc3)Cc3ccncc3)cc2)oc2ccccc12 [compound 39] |  |  |  |  |  |  |  |  |  |  |  |  |  | > 88000 nM | < 1% | ~4000 µg/mL (≈ 5.52 mM) | effective in reducing foot pad lesion size
